Results reported in patent US20140221468A1, “Compounds that Modulate Store Operated Calcium Channels” (The Board of Trustees of the Leland Stanford Junior …, priority 2010, published 2014).
Each block holds one compound with its values, some of them ahead of it.

Key:
SOC [1] = assay: Fura2-AM calcium imaging in HEK293 cells; format: cell-based; settings: for effect on intracellular calcium levels, post SOC activation treatment: applied after ER store depletion, at minute 510 of imaging
Description: Calcium imaging was utilized for further characterization of the compounds and analogs. Using Fura2-AM, a known ratiometric calcium indicator, SOC dependent intracellular calcium rise and lack thereof was measured after treatment of our compounds (FIG. 3A-B). […] 1 minute before treatment of Thapsigargin.
This observation was in line with the previous luciferase assays and confirmed the ability of these compounds to inhibit SOC.
LaCl, a general blocker of divalent channels, was also used as a comparison for the post treatment experiment. […] HEK293 cells were treated with DMSO (black), LaCl at 1 uM (red), AnCoA4 at 50 uM (orange), and BiochaninA at 50 uM (green) at minute 510 of the calcium imaging. The intracellular calcium levels quickly drop after LaCl treatment whereas the compound treatment had no effect on the calcium levels.imaging.

SOC [2] = assay: NFAT coupled luciferase assay (NFAT-luc) for functional inhibition of SOC; format: cell-based; settings: Jurkat T cells pretreated 30 minutes, activated by thapsigargin (TG) and PMA; read-out: EC50, NFAT-luc assay dose response
Description: To evaluate the ability of these compounds to inhibit SOC, a NFAT coupled luciferase assay was utilized as a functional secondary screen (FIG. 2A). This assay allows the monitoring of the IL2 promoter dependent production of luciferase that is directly activated by SOC through dephosphorylation of NFAT in T lymphocytes. This assay requires treatment of PMA, a PKC agonist, in parallel with SOC activation. Jurkat T cells were pretreated with each of the 51 compounds for 30 minutes and then activated by treatment of thapsigargin (TG) and PMA. TG depletes the ER stores by inhibiting the SERCA pumps that are responsible for refilling these stores with calcium. This process in turn activates SOC currents.
Fifty one compounds identified in the binding assay were tested by NFAT-luc assay to evaluated their SOC inhibitory properties (top). Renilla-luc was also monitored as an internal control of viability of the cells (bottom).
To further examine the hits produced from the secondary luciferase screen, four compounds AnCoA4, AnCoA5, AnCoG4, and AnCoF6 were selected (FIGS. 2B, C, D). The Dose response curve calculated from FIG. 2B is shown in FIG. 2C with a calculated EC50 equal to 0.9 μM.

jurkat T lymphocytes = assay: qRT PCR of T and B lymphocyte activating genes in jurkat T lymphocytes; format: cell-based, human
Description: The ability of AnCoA4 to inhibit activation of jurkat T lymphocytes was investigated (FIG. 4A). As IL2 gene production was previously investigated indirectly using a luciferase assay, the production of 83 more genes was monitored using real time quantitative PCR (qRT PCR). […] Jurkat T cells were treated with DMSO and AnCoA4 30 minutes before activation with PHA. Total RNA was extracted after 4 hours. […] Cells were pretreated with AnCoA4 30 minutes before activation with PHA or thapsigargin plus PMA for various time length of activation.
The ability of the AnCoA4 alone for independent up regulation of IL2 gene was also tested and no effects were observed.

[3] = 50 uM pretreatment for 30 minutes, then PHA activation, qRT PCR

EC50 (SOC [2]): 900 nM
SMILES: COc1cc2c(cc1-c1coc3c4c(ccc3c1=O)OC(C)(C)C=C4)OCO2 [AnCoA4]
SOC dependent intracellular calcium influx, pretreatment (SOC [1]; 50 uM, 1 minute before thapsigargin): significantly reduced | effect on intracellular calcium levels, post SOC activation treatment (SOC [1]; 50 uM): no effect | CCL4 down regulation (jurkat T lymphocytes; [3]): ~180 folds | IL2 down regulation (jurkat T lymphocytes; [3]): about 6 folds | mRNA levels for most genes in comparison with the control sample (jurkat T lymphocytes; 84 genes, 50 uM pretreatment for 30 minutes, then PHA activation): significantly lower | independent up regulation of IL2 gene by compound alone (jurkat T lymphocytes; compound alone, without activation): no effects

SMILES: COc1ccc(-c2coc3cc(O)cc(O)c3c2=O)cc1 [BiochaninA]
effect on intracellular calcium levels, post SOC activation treatment (SOC [1]; 50 uM): no effect

SMILES: [Cl][La]([Cl])[Cl] [LaCl, reference compound]
effect on intracellular calcium levels, post SOC activation treatment (SOC [1]; 1 uM): quickly drop
